Kv1.5% inhibition, inhibition and IC50 data for 26 molecules are collected here from US7507730B2, “Substituted pyrazolo[1,5-a]pyrimidines as potassium channel activators” (Bristol-Myers Squibb Company, priority 2005, dated 2009).

SMILES strings stand for the structures.

Kv1.5, sequence (P22460 whole entry): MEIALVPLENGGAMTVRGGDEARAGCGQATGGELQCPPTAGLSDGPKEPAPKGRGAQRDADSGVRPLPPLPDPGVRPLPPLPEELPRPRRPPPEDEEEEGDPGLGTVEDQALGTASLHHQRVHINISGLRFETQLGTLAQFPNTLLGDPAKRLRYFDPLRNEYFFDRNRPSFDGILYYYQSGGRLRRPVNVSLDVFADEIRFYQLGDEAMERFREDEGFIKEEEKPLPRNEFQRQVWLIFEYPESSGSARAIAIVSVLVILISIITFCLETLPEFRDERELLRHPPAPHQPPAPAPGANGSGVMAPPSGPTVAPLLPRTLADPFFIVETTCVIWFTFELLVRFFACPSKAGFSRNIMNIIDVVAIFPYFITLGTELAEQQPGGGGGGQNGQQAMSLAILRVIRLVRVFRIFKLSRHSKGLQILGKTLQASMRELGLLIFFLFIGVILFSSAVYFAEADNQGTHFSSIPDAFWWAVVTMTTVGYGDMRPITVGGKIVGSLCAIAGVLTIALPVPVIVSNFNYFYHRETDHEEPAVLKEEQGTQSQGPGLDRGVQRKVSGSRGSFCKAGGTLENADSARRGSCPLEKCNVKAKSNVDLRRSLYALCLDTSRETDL

For the first test, the target named is Kv1.5 (Homo sapiens, UniProt P22460). Kind of test: Kv1.5 inhibition assay (IKur inhibitor assay per cited references). In kind it is cell-based. Particulars: at 0.3 μM. An excerpt:
Assays to determine the degree of activity of a compound as an IKur inhibitor are well known in the art and are described in references such as J. Gen. Physiol. Apr.; 101 (4):513-43, and Br. J. Pharmacol. 1995 May; 115(2):267-74.
In turn, `CC1=C(S(=O)(=O)c2ccc(Cl)cc2)C(c2ccc(C)c(F)c2)n2nc(C(F)(F)F)cc2N1` (single isomer, unassigned) [Example 42 Isomer 2, 6-(4-Chlorophenylsulfonyl)-7-(3-fluoro-4-methylphenyl)-5-methyl-2-(trifluoromethyl)-4,7-dihydropyrazolo[1,5-a]pyrimidine] showed a Kv1.5% inhibition of 92.9%.
For the molecule `CCN(CC)S(=O)(=O)C1=C(C)Nc2cc(C(F)(F)F)nn2C1c1ccc(Cl)c(Cl)c1` (single isomer, unassigned) [Example 64 Isomer 1, 7-(3,4-Dichlorophenyl)-N,N-diethyl-5-methyl-2-(trifluoromethyl)-4,7-dihydropyrazolo[1,5-a]pyrimidine-6-sulfonamide], the inhibition (as a rule, the drop in the measured response relative to a control, in per cent) at 0.3 µM was 76.2%.
Still for that read-out and setting: with `CCCS(=O)(=O)N(C)C(=O)C1=C(C)Nc2cc(C(F)(F)F)nn2C1c1ccc(Cl)c(Cl)c1` (single isomer, unassigned) [Example 91 Isomer 1, 7-(3,4-Dichlorophenyl)-N,5-dimethyl-N-(propylsulfonyl)-2-(trifluoromethyl)-4,7-dihydropyrazolo[1,5-a]pyrimidine-6-carboxamide] the figure was 72%.
As for `CC1=C(S(=O)(=O)c2ccccc2)C(c2ccc(Cl)c(F)c2)n2nc(C(F)(F)F)cc2N1` (single isomer, unassigned) [Example 33 Isomer 2, 7-(4-Chloro-3-fluorophenyl)-5-methyl-6-(phenylsulfonyl)-2-(trifluoromethyl)-4,7-dihydropyrazolo[1,5-a]pyrimidine], the Kv1.5% inhibition is listed as 76.5%.
Consider `CC1=C(S(=O)(=O)N2CCN(c3ccccc3)CC2)C(c2ccc(Cl)c(Cl)c2)n2nc(C(F)(F)F)cc2N1` (racemic) [Example 70, 7-(3,4-Dichlorophenyl)-5-methyl-6-(4-phenylpiperazin-1-ylsulfonyl)-2-(trifluoromethyl)-4,7-dihydropyrazolo[1,5-a]pyrimidine], for which the inhibition at 0.3 µM came out at 26%.
Take `CC1=C(S(=O)(=O)N2CCCC2)C(c2ccc(Cl)cc2)n2nc(C(F)(F)F)cc2N1` (single isomer, unassigned) [Example 67 Isomer 2, 7-(4-Chlorophenyl)-5-methyl-6-(pyrrolidin-1-ylsulfonyl)-2-(trifluoromethyl)-4,7-dihydropyrazolo[1,5-a]pyrimidine]: the Kv1.5% inhibition turned out to be 54%.
The molecule `CC1=C(S(=O)(=O)c2ccccc2)C(c2ccc(N3CCCC3)cc2)n2nc(C(F)(F)F)cc2N1` (racemic) [Example 21, 5-Methyl-6-(phenylsulfonyl)-7-(4-(pyrrolidin-1-yl)phenyl)-2-(trifluoromethyl)-4,7-dihydropyrazolo[1,5-a]pyrimidine] displayed an inhibition at 0.3 µM of 11.1%.
As for `CC1=C(S(=O)(=O)N2CCCC2)C(c2ccc(Cl)c(Cl)c2)n2nc(C)c(Cl)c2N1` (single isomer, unassigned) [Example 69 Isomer 2, 3-Chloro-7-(3,4-dichlorophenyl)-2,5-dimethyl-6-(pyrrolidin-1-ylsulfonyl)-4,7-dihydropyrazolo[1,5-a]pyrimidine], the Kv1.5% inhibition was found to be 40%.
The same measure, in the same setting: with `CCN(C(=O)C1=C(C)Nc2cc(C(F)(F)F)nn2C1c1ccc(Cl)c(Cl)c1)S(=O)(=O)c1ccc(Cl)cc1` (single isomer, unassigned) [Example 93 Isomer 2, N-(4-Chlorophenylsulfonyl)-7-(3,4-dichlorophenyl)-N-ethyl-5-methyl-2-(trifluoromethyl)-4,7-dihydropyrazolo[1,5-a]pyrimidine-6-carboxamide] the figure was 27%; with `CC1=C(S(=O)(=O)c2ccc(Cl)cc2)C(c2ccc(F)cc2)n2nc(C(F)(F)F)cc2N1` (single isomer, unassigned) [Example 43 Isomer 2, 6-(4-Chlorophenylsulfonyl)-7-(4-fluorophenyl)-5-methyl-2-(trifluoromethyl)-4,7-dihydropyrazolo[1,5-a]pyrimidine], 87.3%.
`CC1=C(S(=O)(=O)c2ccc(Cl)cc2)C(c2ccc(C)c(F)c2)n2nc(C(F)(F)F)cc2N1` (single isomer, unassigned) [Example 42 Isomer 1, 6-(4-Chlorophenylsulfonyl)-7-(3-fluoro-4-methylphenyl)-5-methyl-2-(trifluoromethyl)-4,7-dihydropyrazolo[1,5-a]pyrimidine] registered an inhibition at 0.3 µM of 94.5%.
Take `CC1=C(S(=O)(=O)NC(C)(C)C)C(c2ccc(Cl)c(Cl)c2)n2nc(C(F)(F)F)cc2N1` (single isomer, unassigned) [Example 58 Isomer 1, N-tert-Butyl-7-(3,4-dichlorophenyl)-5-methyl-2-(trifluoromethyl)-4,7-dihydropyrazolo[1,5-a]pyrimidine-6-sulfonamide]: the inhibition at 0.3 µM stood at 42.9%.
With `CC1=C(S(=O)(=O)c2ccccc2)C(c2ccc(F)cc2)n2nc(C(F)(F)F)cc2N1` (single isomer, unassigned) [Example 36 Isomer 2, 7-(4-Fluorophenyl)-5-methyl-6-(phenylsulfonyl)-2-(trifluoromethyl)-4,7-dihydropyrazolo[1,5-a]pyrimidine], the inhibition at 0.3 µM amounted to 49%.
Molecule `CCN(CC)S(=O)(=O)C1=C(C)Nc2cc(C(F)(F)F)nn2C1c1ccc(Cl)c(Cl)c1` (single isomer, unassigned) [Example 64 Isomer 2, 7-(3,4-Dichlorophenyl)-N,N-diethyl-5-methyl-2-(trifluoromethyl)-4,7-dihydropyrazolo[1,5-a]pyrimidine-6-sulfonamide] had a Kv1.5% inhibition of 60%.
Turning to `COc1ccc(S(=O)(=O)N(C)C(=O)C2=C(C)Nc3ccnn3C2c2ccc(Cl)c(Cl)c2)cc1` (racemic) [Example 73, 7-(3,4-Dichlorophenyl)-N-(4-methoxyphenylsulfonyl)-N,5-dimethyl-4,7-dihydropyrazolo[1,5-a]pyrimidine-6-carboxamide], the inhibition at 0.3 µM stood at 86%.
Still for that read-out and setting: under `CC1=C(S(=O)(=O)c2ccccc2)C(c2ccc(Cl)cc2)n2nc(C(F)(F)F)cc2N1` (single isomer, unassigned) [Example 26 Isomer 1, 7-(4-Chlorophenyl)-5-methyl-6-(phenylsulfonyl)-2-(trifluoromethyl)-4,7-dihydropyrazolo[1,5-a]pyrimidine] stands 85.8%; under `Cc1nc2cc(C(F)(F)F)nn2c(-c2ccc(Cl)c(Cl)c2)c1C(=O)N(C)S(=O)(=O)c1ccccc1` (racemic) [Example 92, 7-(3,4-Dichlorophenyl)-N,5-dimethyl-N-(phenylsulfonyl)-2-(trifluoromethyl)pyrazolo[1,5-a]pyrimidine-6-carboxamide], 41%.
Turning to `CCN(C(=O)C1=C(C)Nc2cc(C(F)(F)F)nn2C1c1ccc(Cl)c(Cl)c1)S(=O)(=O)c1ccc(Cl)cc1` (single isomer, unassigned) [Example 93 Isomer 1, N-(4-Chlorophenylsulfonyl)-7-(3,4-dichlorophenyl)-N-ethyl-5-methyl-2-(trifluoromethyl)-4,7-dihydropyrazolo[1,5-a]pyrimidine-6-carboxamide], 0.3 µM produced 31% inhibition.
The same measure, in the same setting: with `CC1=C(S(=O)(=O)N2CCCC2)C(c2ccc(Cl)c(Cl)c2)n2nc(C(F)(F)F)cc2N1` (single isomer, unassigned) [Example 59 Isomer 1, 7-(3,4-Dichlorophenyl)-5-methyl-6-(pyrrolidin-1-ylsulfonyl)-2-(trifluoromethyl)-4,7-dihydropyrazolo[1,5-a]pyrimidine] the figure was 89.8%.
Consider `CC1=C(C(=O)N(C)S(=O)(=O)c2ccccc2)C(c2ccc(Cl)c(Cl)c2)n2nc(C(F)(F)F)cc2N1` (single isomer, unassigned) [Example 90 Isomer 2, 7-(3,4-Dichlorophenyl)-N,5-dimethyl-N-(phenylsulfonyl)-2-(trifluoromethyl)-4,7-dihydropyrazolo[1,5-a]pyrimidine-6-carboxamide], for which the Kv1.5% inhibition is listed as 51%.
As for `CC1=C(S(=O)(=O)C(C)C)C(c2ccc(Cl)c(Cl)c2)n2nc(C)cc2N1` (racemic) [Example 13, 7-(3,4-Dichlorophenyl)-6-(isopropylsulfonyl)-2,5-dimethyl-4,7-dihydropyrazolo[1,5-a]pyrimidine], at 0.3 µM the inhibition was 15.4%.
Same read-out and setting: with `COc1ccc(S(=O)(=O)C2=C(C)Nc3cc(C)nn3C2c2cccc(Cl)c2)cc1` (single isomer, unassigned) [Example 17 Isomer 2, 7-(3-Chlorophenyl)-6-(4-methoxyphenylsulfonyl)-2,5-dimethyl-4,7-dihydropyrazolo[1,5-a]pyrimidine] the figure was 18.1%.

Staying with this test, now noted: read-out: Kv1.5 IC50.
On to `CC1=C(S(=O)(=O)c2ccc(F)cc2)C(c2ccc(Cl)c(Cl)c2)n2nc(C(F)(F)F)cc2N1` (single isomer, unassigned) [Example 12 Isomer 1, 7-(3,4-Dichlorophenyl)-6-(4-fluorophenylsulfonyl)-5-methyl-2-(trifluoromethyl)-4,7-dihydropyrazolo[1,5-a]pyrimidine], for which the IC50 (in general, the concentration that gives 50% inhibition) is 142 nM.
On the same count and under the same terms, with `CC1=C(S(=O)(=O)c2ccc(Cl)cc2)C(c2ccc(Cl)c(Cl)c2)n2nc(C(F)(F)F)cc2N1` (single isomer, unassigned) [Example 4 Isomer 1, 6-(4-Chlorophenylsulfonyl)-7-(3,4-dichlorophenyl)-5-methyl-2-(trifluoromethyl)-4,7-dihydropyrazolo[1,5-a]pyrimidine] the figure was 180 nM; with `CC1=C(S(=O)(=O)c2ccccn2)C(c2ccc(Cl)cc2)n2nc(C(F)(F)F)cc2N1` (single isomer, unassigned) [Example 47 Isomer 1, 7-(4-Chlorophenyl)-5-methyl-6-(pyridin-2-ylsulfonyl)-2-(trifluoromethyl)-4,7-dihydropyrazolo[1,5-a]pyrimidine], 197 nM; with `CC1=C(S(=O)(=O)NC2CCCCC2)C(c2ccc(Cl)c(Cl)c2)n2nc(C)cc2N1` (single isomer, unassigned) [Example 38 Isomer 1, N-Cyclohexyl-7-(3,4-dichlorophenyl)-2,5-dimethyl-4,7-dihydropyrazolo[1,5-a]pyrimidine-6-sulfonamide], 108 nM.
